Results as given in paper PMC3681807 (Neuropharmacology, 2013).
Entries after “also recorded” stand apart in the source; their conditions may differ. Like-named read-outs stand apart in the source and are kept apart here.

Legend:
Sprague-Dawley rats = details: s.c.; ref Baumann et al., 2013; cited from earlier work
Male Wistar rats [1] = assay: locomotor activity by radiotelemetry after non-contingent s.c. administration; assay type: in vivo, rat; details: for maximal increase of activity over baseline and/or vehicle: lower doses
[2] = tested on: serotonin transporter (SERT); details: human transporters expressed by HEK 293 cells; ref Simmler et al., 2013; cited from earlier work
serotonin transporter = serotonin transporter (Homo sapiens, UniProt P31645); assay: biochemical
monoamine release = details: ref Baumann et al., 2013, Simmler et al.; cited from earlier work
Male Wistar rats [3] = assay: progressive-ratio dose-response self-administration testing; assay type: in vivo, rat; details: for number of correct lever presses (M) / post-reinforcement pause duration (M) / time to reach breakpoint: PR; for number of correct lever presses (M) / post-reinforcement pause duration (M): 1st 3 hours of session
[4] = molecular target: noradrenergic transporter (Homo sapiens, UniProt P23975); assay: biochemical
Male Wistar rats [5] = assay: body temperature by radiotelemetry after non-contingent s.c. administration; assay type: in vivo, rat; details: for effect on body temperature: 0–5.6 mg/kg s.c., MDPV at TA about 23 °C
DAT/SERT = details: ref Simmler et al., 2013; cited from earlier work
[6] = tested on: noradrenaline transporter (NET); details: rat synaptosomes; ref Baumann et al., 2013; cited from earlier work
[7] = tested on: noradrenaline transporter (NET); details: human transporters expressed by HEK 293 cells; ref Simmler et al., 2013; cited from earlier work
[8] = tested on: serotonin transporter (SERT); details: rat synaptosomes; ref Baumann et al., 2013; cited from earlier work
[9] = tested on: dopamine transporter (DAT); details: human transporters expressed by HEK 293 cells; ref Simmler et al., 2013; cited from earlier work
Male Wistar rats [10] = assay: intravenous self-administration acquisition; assay type: in vivo, rat; details: for infusion rate (M) / lever discrimination (M): 0.05 mg/kg/inf, FR5, 7 non-food-restricted sessions; for self-administered drug, Max / self-administered drug, Mean: 0.05 mg/kg/infusion i.v., within 10 training sessions; for level of drug intake from session to session: during acquisition
Male Wistar rats [11] = assay: stereotypy after self-administration sessions; assay type: in vivo, rat; details: FR5 dose-response testing
Male Wistar rats [12] = assay: fixed-ratio; assay type: in vivo, rat
mice = details: i.p.; ref Marusich et al., 2012; cited from earlier work
Male Wistar rats [13] = assay: stereotypy scores after non-contingent administration; assay type: in vivo, rat
[14] = tested on: dopamine transporter (DAT); details: rat synaptosomes; ref Baumann et al., 2013; cited from earlier work
[15] = tested on: alpha adrenergic receptors; details: ref Roth et al., 2000, Rothman et al., 2001, 2003; cited from earlier work
[16] = 1.0 mg/kg s.c., MDPV 30- and 60-min bins, METH 30-, 90- and 120-min bins
[17] = 5.6 mg/kg s.c., summed deviations from mean of vehicle
[18] = 1.0 mg/kg s.c., MDPV 180-min bin, METH 30- to 120-min bins
[19] = FR5, per-infusion dose 0.01 mg/kg
[20] = FR5, per-infusion dose 0.05 mg/kg
[21] = FR5, per-infusion dose 0.10 mg/kg
[22] = FR5, per-infusion dose 0.50 mg/kg
[23] = FR5, per-infusion dose 0.25 mg/kg

Chain of serotonin transporter (P31645 whole entry): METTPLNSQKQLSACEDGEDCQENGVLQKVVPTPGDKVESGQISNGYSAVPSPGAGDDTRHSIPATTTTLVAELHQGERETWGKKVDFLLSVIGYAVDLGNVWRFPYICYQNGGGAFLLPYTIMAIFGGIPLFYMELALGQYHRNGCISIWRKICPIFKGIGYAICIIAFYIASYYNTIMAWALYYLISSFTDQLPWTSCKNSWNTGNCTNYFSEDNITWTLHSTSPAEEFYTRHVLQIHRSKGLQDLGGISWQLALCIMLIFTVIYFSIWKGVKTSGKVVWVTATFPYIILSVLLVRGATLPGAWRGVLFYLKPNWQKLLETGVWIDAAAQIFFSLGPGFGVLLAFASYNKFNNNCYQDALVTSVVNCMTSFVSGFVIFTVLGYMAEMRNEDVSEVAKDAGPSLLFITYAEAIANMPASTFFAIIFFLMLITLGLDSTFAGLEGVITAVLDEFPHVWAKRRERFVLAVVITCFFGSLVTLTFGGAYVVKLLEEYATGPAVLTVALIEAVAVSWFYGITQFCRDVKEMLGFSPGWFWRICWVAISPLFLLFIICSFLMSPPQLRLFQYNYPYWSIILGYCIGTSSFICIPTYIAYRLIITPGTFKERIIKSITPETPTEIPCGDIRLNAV
Chain of noradrenergic transporter (P23975 whole entry): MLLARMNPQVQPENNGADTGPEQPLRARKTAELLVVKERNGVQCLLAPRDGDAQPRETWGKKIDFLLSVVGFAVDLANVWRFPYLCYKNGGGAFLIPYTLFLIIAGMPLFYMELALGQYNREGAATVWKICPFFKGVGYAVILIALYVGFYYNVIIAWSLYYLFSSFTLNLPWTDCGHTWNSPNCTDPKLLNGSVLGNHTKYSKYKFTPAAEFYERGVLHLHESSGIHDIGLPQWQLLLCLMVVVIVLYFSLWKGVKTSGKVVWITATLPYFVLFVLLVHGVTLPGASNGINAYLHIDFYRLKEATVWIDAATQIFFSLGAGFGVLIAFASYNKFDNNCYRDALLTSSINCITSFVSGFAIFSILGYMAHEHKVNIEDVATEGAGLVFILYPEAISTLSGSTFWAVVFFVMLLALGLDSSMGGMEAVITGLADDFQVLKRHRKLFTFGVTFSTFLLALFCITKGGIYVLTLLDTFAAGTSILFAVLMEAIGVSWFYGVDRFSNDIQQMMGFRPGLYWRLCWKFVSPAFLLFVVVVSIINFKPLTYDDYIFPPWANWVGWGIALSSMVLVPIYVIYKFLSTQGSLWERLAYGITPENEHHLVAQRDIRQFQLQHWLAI

## CCCC(C(=O)c1ccc2c(c1)OCO2)N1CCCC1 (centres unmarked) [MDPV, 1-(1,3-benzodioxol-5-yl)-2-(1-pyrrolidinyl)-1-pentanone]
Sprague-Dawley rats
  doses at which stereotypies were reported: above 0.3 mg/kg
Male Wistar rats [1]; [16]
  locomotor activity compared with vehicle: higher
Male Wistar rats [1]; [17]
  AUC for activity, MDPV vs METH: significantly higher for MDPV than METH
Male Wistar rats [1]
  resolution of high-dose suppression of locomotion: 120–150 minutes post-injection
  duration of significant low-dose locomotor stimulation: 90 minutes post-injection
  maximal increase of activity over baseline and/or vehicle: about 4 fold
[2]
  IC50: 9.3 µM
Serotonin transporter
  Ki: 1.54 µM
Monoamine release
  activity as monoamine releaser: ineffective as a monoamine releaser
Male Wistar rats [3]; per-infusion dose 0.01 mg/kg
  number of correct lever presses (M): 53
  post-reinforcement pause duration (M): 225 s
Male Wistar rats [3]; per-infusion dose 0.05 mg/kg
  number of correct lever presses (M): 610
  post-reinforcement pause duration (M): 110 s
Male Wistar rats [3]; per-infusion dose 0.10 mg/kg
  number of correct lever presses (M): 933
  post-reinforcement pause duration (M): 179 s
Male Wistar rats [3]; per-infusion dose 0.50 mg/kg
  number of correct lever presses (M): 286
  post-reinforcement pause duration (M): 820 s
Male Wistar rats [3]; per-infusion dose 0.5 mg/kg, all except 2 sessions
  time to reach breakpoint: ≤ 5 h
Male Wistar rats [3]; per-infusion doses at or below 0.1 mg/kg, all rats
  time to reach breakpoint: less than 3 hrs
Male Wistar rats [3]; more responding under optimal dose under a progressive-ratio schedule
  efficacy on drug-reinforced behavior compared with METH: greater efficacy
[4]
  Ki: 0.166 µM
Male Wistar rats [5]
  effect on body temperature: modestly hyper-thermic; also recorded: negligible effect on temperature
Male Wistar rats [5]; [18]
  body temperature compared to pre-injection baseline: higher
Male Wistar rats [5]; additional data, not shown
  effect on rat body temperature at TA of 30°C: fails to significantly elevate rat body temperature
Male Wistar rats [5]; s.c., TA 23±1 °C, 180-min post-injection time bin
  body temperature after 1.0 mg/kg compared with 5.6 mg/kg: higher
DAT/SERT
  DAT/SERT inhibition ratio: > 100
[6]
  IC50: 0.026 µM
[7]
  IC50: 0.044 µM
[8]
  IC50: 3.35 µM
[9]
  IC50: 0.031 µM
Male Wistar rats [10]
  infusion rate (M): 19 inf/hr
  lever discrimination (M): 86%
  self-administered drug, Max: 5.8 mg/kg/h
  self-administered drug, Mean: 0.9 mg/kg/h
  level of drug intake from session to session: ~ 1 mg/kg/hr
Male Wistar rats [10]; for most rats
  reward-lever selectivity: > 80%
Male Wistar rats [11]
  average cumulative dose when post-session stereotypy was not observed (M): 0.6 mg/kg per one hour session
  average cumulative dose when post-session stereotypy was observed (M): 1.4 mg/kg per one hour session
Male Wistar rats [12]; [19]
  infusion rate (M): 35 infusions/hour
  post-reinforcement pause length (M): 48 s
Male Wistar rats [12]; [20]
  infusion rate (M): 13 infusions/hour
  post-reinforcement pause length (M): 107 s
Male Wistar rats [12]; [21]
  infusion rate (M): 8 infusions/hour
  post-reinforcement pause length (M): 223 s
Male Wistar rats [12]; [22]
  infusion rate (M): 4 infusions/hour
  post-reinforcement pause length (M): 572 s
Male Wistar rats [12]; more responding under lowest dose under fixed-ratio schedule
  potency on drug-reinforced behavior compared with METH: greater potency
mice
  doses after which stereotypies are exhibited: 1 to 3 mg/kg
Male Wistar rats [13]; 0.5 mg/kg s.c.
  time for which stereotypy scores were higher than vehicle: 15 min
Male Wistar rats [13]; 0.5 mg/kg s.c., baseline immediately post-injection
  time for which stereotypy scores were higher than baseline: 15 min
Male Wistar rats [13]; 1.0 mg/kg s.c.
  time for which stereotypy scores were higher than vehicle: 60 min
Male Wistar rats [13]; 1.0 mg/kg s.c., baseline immediately post-injection
  time for which stereotypy scores were higher than baseline: 60 min
Male Wistar rats [13]; 3.2 mg/kg s.c.
  time for which stereotypy scores were higher than vehicle: entire session
Male Wistar rats [13]; 3.2 mg/kg s.c., baseline immediately post-injection
  time bins in which stereotypy scores were higher than baseline: 15 to 135 min
Male Wistar rats [13]; 5.6 mg/kg s.c.
  time for which stereotypy scores were higher than vehicle: entire session
[14]
  IC50: 0.0041 µM

## CN[C@@H](C)Cc1ccccc1 [METH, d-methamphetamine, reference compound]
Male Wistar rats [1]; [16]
  locomotor activity compared with vehicle: higher
Male Wistar rats [1]; 5.6 mg/kg s.c., 60–150-min post-injection time bins
  locomotor activity compared with vehicle: lower
Male Wistar rats [1]
  resolution of high-dose suppression of locomotion: 150–180 minutes post-injection
  duration of significant low-dose locomotor stimulation: 120 minutes post-injection
  maximal increase of activity over baseline and/or vehicle: about 4 fold
Male Wistar rats [3]; per-infusion dose 0.01 mg/kg
  number of correct lever presses (M): 60
  post-reinforcement pause duration (M): 276 s
Male Wistar rats [3]; per-infusion dose 0.05 mg/kg
  number of correct lever presses (M): 74
  post-reinforcement pause duration (M): 103 s
Male Wistar rats [3]; per-infusion dose 0.10 mg/kg
  number of correct lever presses (M): 250
  post-reinforcement pause duration (M): 113 s
Male Wistar rats [3]; per-infusion dose 0.25 mg/kg
  number of correct lever presses (M): 135
  post-reinforcement pause duration (M): 490 s
Male Wistar rats [5]
  effect on body temperature: increased monotonically
Male Wistar rats [5]; [18]
  body temperature compared to pre-injection baseline: higher
Male Wistar rats [5]; 5.6 mg/kg s.c., 60- to 150-min time bins
  body temperature compared to vehicle: higher
Male Wistar rats [5]; 5.6 mg/kg s.c., 60- to 90-min post-injection time bins
  body temperature compared to pre-injection baseline: higher
Male Wistar rats [5]; [17]
  AUC for body temperature, METH vs MDPV: higher for METH than for MDPV
Male Wistar rats [5]; 20±2 °C TA
  average body temperature as a function of dose: did not vary as a function of drug condition
Male Wistar rats [5]; TA of 25±2 °C, doses in mg/kg s.c.
  average body temperature as a function of dose: 5.6 > 1.0 > vehicle
DAT/SERT
  DAT/SERT inhibition ratio: > 10
[15]
  binding affinity: low affinity binding
Male Wistar rats [10]
  infusion rate (M): 8 inf/hr
  lever discrimination (M): 83%
  self-administered drug, Max: 1.15 mg/kg/h
  self-administered drug, Mean: 0.4 mg/kg/h
  level of drug intake from session to session: ~ 0.5 mg/kg/hr
Male Wistar rats [12]; [19]
  infusion rate (M): 8 infusions/hour
  post-reinforcement pause length (M): 94 s
Male Wistar rats [12]; [20]
  infusion rate (M): 6 infusions/hour
  post-reinforcement pause length (M): 106 s
Male Wistar rats [12]; [21]
  infusion rate (M): 5 infusions/hour
  post-reinforcement pause length (M): 170 s
Male Wistar rats [12]; [23]
  infusion rate (M): 4 infusions/hour
  post-reinforcement pause length (M): 162 s

## COC(=O)[C@H]1[C@@H](OC(=O)c2ccccc2)C[C@@H]2CC[C@H]1N2C [cocaine]
DAT/SERT
  DAT/SERT inhibition ratio: 3.1
